Laboratory results reported in patent publication US10280170B2, “Substituted 4,5,6,7-tetrahydro-pyrazolo[1,5-a]pyrazine derivatives and 5,6,7,8-tetrahydro-4H-pyrazolo[1,5-a][1,4]diazepine derivatives as Ros1 inhibitors” (Janssen Pharmaceutica NV, priority 2014, dated 2019).
Like-named read-outs stand apart in the source and are kept apart here.

How the values were obtained:
[1] = target: Ba/F3 cells containing Ros1 with a mutation at the gatekeeper residue (L2026M) (Homo sapiens, UniProt P08922, L2026M, cells depend on it, form not given); assay: Ba/F3-Ros1 cell proliferation assay, L2026M gatekeeper mutant; type: cell-based, murine; conditions: without IL-3
Chain of Ba/F3 cells containing Ros1 with a mutation at the gatekeeper residue (L2026M) (P08922 whole entry L2026M, form open): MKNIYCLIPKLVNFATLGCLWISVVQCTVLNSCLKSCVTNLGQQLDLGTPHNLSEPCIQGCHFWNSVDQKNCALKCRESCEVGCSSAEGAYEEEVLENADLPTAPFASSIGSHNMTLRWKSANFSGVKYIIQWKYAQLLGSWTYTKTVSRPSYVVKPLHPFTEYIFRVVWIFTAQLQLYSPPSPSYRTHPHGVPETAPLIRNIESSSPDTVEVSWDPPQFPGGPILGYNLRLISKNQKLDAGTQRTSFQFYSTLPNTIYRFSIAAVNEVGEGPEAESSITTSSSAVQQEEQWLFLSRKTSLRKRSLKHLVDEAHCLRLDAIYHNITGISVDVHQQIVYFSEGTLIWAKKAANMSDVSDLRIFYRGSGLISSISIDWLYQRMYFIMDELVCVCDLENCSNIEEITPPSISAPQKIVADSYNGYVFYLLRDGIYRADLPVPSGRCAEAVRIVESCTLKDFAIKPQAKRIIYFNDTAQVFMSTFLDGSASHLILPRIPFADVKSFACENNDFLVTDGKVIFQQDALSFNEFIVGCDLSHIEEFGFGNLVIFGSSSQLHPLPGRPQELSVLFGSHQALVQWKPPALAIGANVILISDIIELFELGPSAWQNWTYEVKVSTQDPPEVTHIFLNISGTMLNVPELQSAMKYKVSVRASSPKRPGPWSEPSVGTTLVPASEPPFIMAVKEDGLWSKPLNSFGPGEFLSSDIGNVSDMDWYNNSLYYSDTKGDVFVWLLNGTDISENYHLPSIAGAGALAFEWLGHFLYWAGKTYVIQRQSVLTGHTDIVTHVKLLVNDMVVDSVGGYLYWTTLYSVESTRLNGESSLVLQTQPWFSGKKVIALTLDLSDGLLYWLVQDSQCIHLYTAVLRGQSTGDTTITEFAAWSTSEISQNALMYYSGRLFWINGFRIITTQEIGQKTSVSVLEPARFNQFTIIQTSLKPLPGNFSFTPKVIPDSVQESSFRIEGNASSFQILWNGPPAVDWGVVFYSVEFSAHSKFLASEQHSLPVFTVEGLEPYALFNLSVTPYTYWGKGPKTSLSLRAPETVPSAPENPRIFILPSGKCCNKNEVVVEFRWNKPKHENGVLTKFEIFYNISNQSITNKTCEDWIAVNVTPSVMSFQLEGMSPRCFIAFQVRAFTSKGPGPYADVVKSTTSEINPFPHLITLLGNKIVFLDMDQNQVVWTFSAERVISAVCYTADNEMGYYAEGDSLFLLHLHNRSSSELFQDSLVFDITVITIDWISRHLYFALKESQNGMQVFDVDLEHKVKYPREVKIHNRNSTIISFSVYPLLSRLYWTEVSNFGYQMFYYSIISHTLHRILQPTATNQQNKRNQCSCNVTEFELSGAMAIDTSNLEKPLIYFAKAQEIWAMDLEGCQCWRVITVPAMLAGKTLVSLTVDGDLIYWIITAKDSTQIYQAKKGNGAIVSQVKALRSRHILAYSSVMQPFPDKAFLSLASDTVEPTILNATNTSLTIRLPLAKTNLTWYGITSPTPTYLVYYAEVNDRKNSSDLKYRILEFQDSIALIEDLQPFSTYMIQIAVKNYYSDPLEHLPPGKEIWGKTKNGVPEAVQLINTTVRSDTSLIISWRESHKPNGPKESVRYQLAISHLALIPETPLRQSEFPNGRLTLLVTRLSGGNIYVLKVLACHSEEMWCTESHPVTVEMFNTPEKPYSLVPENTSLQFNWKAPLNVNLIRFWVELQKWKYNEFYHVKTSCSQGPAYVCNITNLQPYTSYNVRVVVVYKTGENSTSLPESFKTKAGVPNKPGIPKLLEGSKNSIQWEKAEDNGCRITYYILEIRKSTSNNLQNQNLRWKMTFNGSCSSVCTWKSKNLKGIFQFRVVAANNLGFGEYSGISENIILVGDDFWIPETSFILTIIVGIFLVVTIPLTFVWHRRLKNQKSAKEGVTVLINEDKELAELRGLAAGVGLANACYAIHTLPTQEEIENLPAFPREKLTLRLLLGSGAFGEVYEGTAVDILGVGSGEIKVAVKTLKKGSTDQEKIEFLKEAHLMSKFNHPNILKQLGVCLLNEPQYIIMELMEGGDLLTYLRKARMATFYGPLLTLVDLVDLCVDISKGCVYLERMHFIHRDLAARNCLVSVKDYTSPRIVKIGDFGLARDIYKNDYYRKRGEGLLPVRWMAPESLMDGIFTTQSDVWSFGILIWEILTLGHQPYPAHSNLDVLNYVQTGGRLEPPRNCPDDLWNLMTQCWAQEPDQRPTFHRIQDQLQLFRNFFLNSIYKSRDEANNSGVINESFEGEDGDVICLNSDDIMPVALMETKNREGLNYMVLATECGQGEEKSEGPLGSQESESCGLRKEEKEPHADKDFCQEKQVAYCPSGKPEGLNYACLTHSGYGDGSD
Outline: (§1)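 20000 Ba/F3-Ros1 cells/well (WT, L2026M, G2032R), RPMI-1640 phenol red free + 10% FBS + 2 mM Gln, cpds from DMSO; 24 h, 37 °C, 5% CO2. Alamar Blue 4 h, RFU ex540/em590.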

[2] = system: HCC78 non-small cell lung cancer cells; assay: HCC78 cell proliferation assay; type: cell-based; conditions: Homo sapiens, HCC78, 96 h, read-out: HCC-78 PROL pEC50 (converted)
Description: HCC78 Cell Proliferation Assay
Approximately 1000 HCC78 non-small cell lung cancer cells in 180 μl of cell culture medium (RPMI-1640, 10% FBS, 2 mM L-Glutamine, 10 mM Hepes, 1 mM sodium pyruvate, 4.5 g/L glucose, 1.5 g/L sodium bicarbonate, 25 μg/ml Gentamycin) were seeded in each well of a 96-well polystyrene, tissue-culture treated plate and incubated at 37° C. and 5% CO2. After 24 hours, compounds were diluted in cell culture medium from which 20 μl was added to the wells containing cells and incubated for 4 days at 37° C. and 5% CO2. A 5 mg/ml solution of the tetrazolium dye MTT was prepared in PBS (phosphate-buffered saline) and 25 μl was added to each well. After 2 hours the medium was removed and replaced by 125 μL of 4/1 DMSO/glycine buffer (0.1M glycine, 0.1M NaCl, pH 10.5) before absorbance was determined at 538 nm.

Ros1 enzyme = target: T1, Ros1 enzyme (Homo sapiens, UniProt P08922); assay: Ros1 enzymatic assay; type: biochemical
T1 construct: 0.5 μg/ml Ros1 enzyme
T1 sequence (P08922 28-2347): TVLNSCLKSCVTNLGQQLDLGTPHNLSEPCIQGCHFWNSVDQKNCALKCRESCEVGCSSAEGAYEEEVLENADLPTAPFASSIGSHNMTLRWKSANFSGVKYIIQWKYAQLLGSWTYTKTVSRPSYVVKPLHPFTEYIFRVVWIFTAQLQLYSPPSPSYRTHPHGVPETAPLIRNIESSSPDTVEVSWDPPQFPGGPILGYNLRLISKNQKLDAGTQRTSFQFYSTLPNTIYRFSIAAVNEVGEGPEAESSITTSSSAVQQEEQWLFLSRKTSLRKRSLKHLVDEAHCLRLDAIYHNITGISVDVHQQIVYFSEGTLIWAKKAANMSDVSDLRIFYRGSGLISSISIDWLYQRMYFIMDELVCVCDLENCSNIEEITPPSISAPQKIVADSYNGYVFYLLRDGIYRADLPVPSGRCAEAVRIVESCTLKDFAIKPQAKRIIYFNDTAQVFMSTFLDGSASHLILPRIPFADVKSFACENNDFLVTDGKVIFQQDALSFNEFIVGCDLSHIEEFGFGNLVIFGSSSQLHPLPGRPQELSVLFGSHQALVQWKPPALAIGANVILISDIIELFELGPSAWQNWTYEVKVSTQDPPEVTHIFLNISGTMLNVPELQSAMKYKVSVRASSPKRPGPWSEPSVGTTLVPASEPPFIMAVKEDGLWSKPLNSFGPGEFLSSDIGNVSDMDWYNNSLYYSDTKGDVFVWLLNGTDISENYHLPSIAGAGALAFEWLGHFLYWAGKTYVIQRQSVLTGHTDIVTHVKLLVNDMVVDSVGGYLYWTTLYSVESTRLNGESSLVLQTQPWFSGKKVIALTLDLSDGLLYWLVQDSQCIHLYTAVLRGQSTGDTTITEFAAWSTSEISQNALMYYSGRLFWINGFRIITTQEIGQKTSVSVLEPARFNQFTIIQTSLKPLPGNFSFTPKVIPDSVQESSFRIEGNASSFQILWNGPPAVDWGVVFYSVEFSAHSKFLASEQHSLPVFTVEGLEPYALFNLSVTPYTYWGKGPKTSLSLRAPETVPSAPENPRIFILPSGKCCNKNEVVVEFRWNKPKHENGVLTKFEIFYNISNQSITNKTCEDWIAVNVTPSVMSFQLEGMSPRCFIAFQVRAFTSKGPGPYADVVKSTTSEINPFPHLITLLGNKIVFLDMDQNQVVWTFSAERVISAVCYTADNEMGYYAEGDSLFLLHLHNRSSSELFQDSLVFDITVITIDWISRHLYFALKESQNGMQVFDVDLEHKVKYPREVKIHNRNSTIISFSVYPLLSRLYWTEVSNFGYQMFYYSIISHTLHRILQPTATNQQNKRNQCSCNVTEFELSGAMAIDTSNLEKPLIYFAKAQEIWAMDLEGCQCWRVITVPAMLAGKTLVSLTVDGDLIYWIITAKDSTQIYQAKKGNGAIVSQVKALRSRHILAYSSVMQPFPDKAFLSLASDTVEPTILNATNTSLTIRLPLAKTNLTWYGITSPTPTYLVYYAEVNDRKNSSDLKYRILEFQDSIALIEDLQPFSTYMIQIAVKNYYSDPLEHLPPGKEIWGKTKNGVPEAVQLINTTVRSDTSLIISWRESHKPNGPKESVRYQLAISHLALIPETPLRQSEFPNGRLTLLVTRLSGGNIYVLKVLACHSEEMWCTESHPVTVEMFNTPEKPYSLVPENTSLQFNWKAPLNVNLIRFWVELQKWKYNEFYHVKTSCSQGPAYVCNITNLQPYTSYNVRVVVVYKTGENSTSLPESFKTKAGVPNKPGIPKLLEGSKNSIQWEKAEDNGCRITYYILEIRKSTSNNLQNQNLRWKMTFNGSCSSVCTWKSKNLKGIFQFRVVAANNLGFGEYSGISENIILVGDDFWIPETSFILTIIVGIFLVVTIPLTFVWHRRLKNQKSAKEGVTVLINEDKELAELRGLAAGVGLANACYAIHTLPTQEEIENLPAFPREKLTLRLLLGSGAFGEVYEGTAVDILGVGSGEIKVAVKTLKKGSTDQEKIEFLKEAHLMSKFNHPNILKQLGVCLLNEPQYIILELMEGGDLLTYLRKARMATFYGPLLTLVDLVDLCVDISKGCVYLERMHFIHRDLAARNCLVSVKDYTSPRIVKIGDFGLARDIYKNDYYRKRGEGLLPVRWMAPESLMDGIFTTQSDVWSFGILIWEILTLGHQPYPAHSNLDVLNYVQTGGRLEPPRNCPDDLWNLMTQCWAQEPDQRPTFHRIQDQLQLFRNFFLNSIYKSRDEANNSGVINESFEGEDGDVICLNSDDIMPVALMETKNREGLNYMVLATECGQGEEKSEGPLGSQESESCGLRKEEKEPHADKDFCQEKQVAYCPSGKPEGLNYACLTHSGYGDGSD
Outline: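 Ros1 kinase, IRS-Tide peptide, 20 μM ATP + [33P]ATP (substrate-mix concentrations); Tris-HCl pH7.5, 10 mM MgCl2, 1 mM EGTA, 0.01% Tween-20; 120 min RT; EDTA/excess ATP stop, streptavidin beads 15 min, LEADseeker imaging.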

[3] = system: Ba/F3 cells containing Ros1 wild-type protein + IL-3; assay: Ba/F3-Ros1 cell proliferation counter-screen, wild-type protein in the presence of 10 ng/ml murine IL-3; type: cell-based; conditions: Mus musculus, BaF3, 24 h, read-out: BaF3-ROS1 + IL3 pIC50 (converted)
Outline: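 Read-out is resazurin-based Alamar Blue fluorescence (RFU, ex 540 nm, em 590 nm), measured 4 h after dye addition. Before that, wild-type Ros1 Ba/F3 cells had been cultured 24 h with compound in the presence of 10 ng/ml murine IL-3.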

[4] = target: T2, Ba/F3 cells containing Ros1 wild-type protein (Homo sapiens, UniProt P08922, cells depend on it, form not given); assay: Ba/F3-Ros1 cell proliferation assay, wild-type Ros1; type: cell-based, murine; conditions: without IL-3
T2 construct: The background only speaks of 'a number of different unrelated proteins' and names SLC34A2-ROS1 for HCC78 cells
T2 sequence (P08922 whole entry, stated change not applied): as the sequence (P08922 whole entry L2026M, form open) above, with M2026L counted along it
Outline: as §1

[5] = Ros1 enzymatic assay, read-out: ROS1 pIC50 (converted)

Row | Structure (SMILES) | Ba/F3 Ros1 L2026M (-IL-3) pIC50 [1] | EC50 [2] | melting point | IC50 (Ros1 enzyme; [5]) | CC50 [3] | BaF3-ROS1-IL3 pIC50 [4] | IC50 (Ros1 enzyme; ROS1 pIC50, Ros1 enzymatic assay) | EC50 ([2]; HCC78 cells, 4 days, MTT) | CC50 ([3]; counter-screen, wild-type, 10 ng/ml murine IL-3)
1 | CC(C)c1ccc(COc2ccc(-c3c(-c4ccncc4)nn4c3C(=O)N(CCS(C)(=O)=O)CC4)cc2)cc1 [Compound 52] | 6.9 | 0.251 µM | 219 °C | 0.0501 µM | > 10 µM | 7.6 | – | – | –
2 | CC(C)c1ccc(COc2ccc(-c3c(-c4ccncc4)nn4c3C(=O)N(CC3CCCO3)CC4)cc2)cc1 (stereo not drawn) [Compound 55] | 6.8 | 0.794 µM | 165 °C | 0.126 µM | > 10 µM | 7.0 | – | – | –
3 | CC(C)c1ccc(COc2ccc(-c3c(-c4ccncc4)nn4c3C(=O)N(CC(=O)N(C)C)CC4)cc2)cc1 [Compound 64] | 6.6 | 0.631 µM | 199 °C | 0.0794 µM | > 10 µM | 7.1 | – | – | –
4 | CC(C)NC(=O)CN1CCn2nc(-c3ccncc3)c(-c3ccc(OCc4ccc(C(C)C)cc4)cc3)c2C1=O [Compound 65] | 6.7 | 0.316 µM | 159 °C | 0.1 µM | > 10 µM | 7.2 | – | – | –
5 | CCOP(=O)(CCN1CCn2nc(-c3ccncc3)c(-c3ccc(OCc4ccc(C(C)C)cc4)cc3)c2C1=O)OCC [Compound 68] | 6.5 | 2.51 µM | 90 °C | – | 2.51 µM | 6.7 | 0.316 µM | – | –
6 | COc1cc(-c2c(-c3ccncc3)nn3c2C(=O)NCC3)ncc1OCc1ccc(C(C)C)cc1 [Compound 72] | 6.0 | 0.251 µM | 231 °C | 0.0631 µM | > 10 µM | 7.2 | – | – | –
7 | CC(C)c1ccc(COc2cc(F)c(-c3c(-c4ccncc4)nn4c3C(=O)NCC4)cn2)cc1 [Compound 73] | 7.4 | 0.126 µM | 207 °C | 0.0158 µM | > 10 µM | 7.9 | – | – | –
8 | CC(C)c1ccc(COc2ccc(-c3c(-c4ccncc4)nn4c3C(=O)NCC4)c(F)n2)cc1 [Compound 74] | 7.5 | 0.0126 µM | 275 °C | 0.0158 µM | > 10 µM | 8.1 | – | – | –
9 | CC(C)c1ccc(COc2ncc(-c3c(-c4ccncc4)nn4c3C(=O)NCC4)cn2)cc1 [Compound 75] | 7.5 | 0.0631 µM | 126 °C | 0.0126 µM | > 10 µM | 7.9 | – | – | –
10 | CC(C)c1ccc(COc2cnc(-c3c(-c4ccncc4)nn4c3C(=O)NCC4)cn2)cc1 [Compound 76] | 7.0 | 0.794 µM | 225 °C | 0.251 µM | > 10 µM | 6.8 | – | – | –
11 | Cc1cc(C(C)C)ccc1COc1ccc(-c2c(-c3ccncc3)nn3c2C(=O)NCC3)cc1 [Compound 78] | 6.9 | – | 247 °C | 0.251 µM | – | 7.1 | – | 0.794 µM | > 10 µM
12 | CC(C)c1ccc(COc2ccc(-c3c(-c4ccncc4)nn4c3C(=O)N(CCO)CC4)cc2)cc1O [Compound 79] | 7.3 | 2.51 µM | 236 °C | 0.0251 µM | > 10 µM | 7.8 | – | – | –
13 | CC(C)c1ccc(COc2ccc(-c3c(-c4ccncc4)nn4c3C(=O)N(CCO)CC4)cc2)cn1 [Compound 81] | 6.5 | 0.158 µM | 93 °C | 0.0631 µM | > 10 µM | 7.3 | – | – | –
